Columns and labels:
Assay type in all cases: cell-based
[1] = tested on: Wnt activity (Sp5-Luc reporter, SW480 colon carcinoma cells); experiment: Wnt activity screening assay: Sp5-Luc reporter gene in SW480 colon carcinoma cells; settings: Homo sapiens; for inhibition at 10 µM: given where EC50 >10 μM, read-out: percent inhibition at 10 μM; for EC50: overnight incubation, 10-point curve from 10 μM
Description: The screening assay for Wnt activity is described as follows. Reporter cell lines can be generated by stably transducing cancer cell lines (e.g., colon cancer) or primary cells (e.g., IEC-6 intestinal cells) with a lentiviral construct that includes a Wnt-responsive promoter driving expression of the firefly luciferase gene.
SW480 colon carcinoma cells were transduced with a lentiviral vector expressing luciferase with a human Sp5 promoter consisting of a sequence of eight TCF/LEF binding sites. SW480 cells stably expressing the Sp5-Luc reporter gene and a hygromycin resistance gene were selected by treatment with 150 μg/mL of hygromycin for 7 days. These stably transduced SW480 cells were expanded in cell culture and used for all further screening activities. Each compound was dissolved in DMSO as a 10 mM stock and used to prepare compound source plates. Serial dilution (1:3, 10-point dose-response curves starting from 10 μM) and compound transfer was performed using the ECHO 550 (Labcyte, Sunnyvale, Calif.) into 384-well white solid bottom assay plates (Greiner Bio-One) with appropriate DMSO backfill for a final DMSO concentration of 0.1%. For Sp5-Luc reporter gene assays, the cells were plated at 4,000 cells/well in 384-well plates with medium containing 1% fetal bovine serum and incubated overnight at 37° C. and 5% CO2. Following incubation, 20 μl of BrightGlo luminescence reagent (Promega) was added to each well of the 384-well assay plates. The plates were placed on an orbital shaker for 2 min and then luminescence was quantified using the Envision (Perkin Elmer) plate reader. Readings were normalized to DMSO only treated cells, and normalized activities were utilized for EC50 calculations using the dose-response log (inhibitor) vs. response-variable slope (four parameters) nonlinear regression feature available in GraphPad Prism 5.0 (or Dotmatics). For EC50 of >10 μM, the percent inhibition at 10 μM is provided.

SW480 colon cancer cells = experiment: Cell viability assay (CellTiter-Blue), SW480 colon cancer cells; settings: Homo sapiens, 96 h, four days, CellTiter-Blue
Procedure: Representative compounds were screened using the following assay procedure to assess the effect on cell viability as described below.
Each compound was dissolved in DMSO as a 10 mM stock and used to prepare compound source plates. Serial dilution (1:3, 8-point dose-response curves from 10 μM to 0.0045 μM) and compound transfer was performed using the ECHO 550 (Labcyte, Sunnyvale, Calif.) into 96-well clear bottom, black-walled plates (Corning—Costar).
Approximately 2×10^3 SW480 colon cancer cells were seeded into each well and allowed to incubate in the presence or absence of compound for four days at 37° C./5% CO2. Eight replicates of DMSO-treated cells served as controls and cells treated with compound were performed in duplicate.
After incubation, 20 μL of CellTiter-Blue (Promega) was added to each well allowed to incubate for approximately 3 hours. This reagent was a buffered solution which contains resazurin, metabolically active cells were able to reduce rezarurin (blue) into resorufin (pink) which was highly fluorescent. This measured fluorescence was used as a readout for cell viability.
After incubation, the plates were read at Ex 560 nm Em 590 nm (Cytation 3, BioTek). Dose-response curves were generated and EC50 concentration values were calculated using non-linear regression curve fit in the GraphPad Prism (San Diego, Calif.) or Dotmatics' Studies Software (Bishops Stortford, UK). For EC50 of >10 μM, the percent inhibition at 10 μM is provided.

[2] = tested on: primary human fibroblasts derived from IPF patients (LL29 cells) treated with TGF-β1; experiment: Inhibition of the fibrotic process: αSMA staining in TGF-β1 treated primary human fibroblasts from IPF patients (LL29 cells); settings: Fibroblast, 96 h, TGF-β1 20 ng/mL, 4 days, % αSMA positive cells
Description: Representative compounds were screened using primary human fibroblasts (derived from IPF patients) treated with TGF-β1 to determine their ability to inhibit the fibrotic process.
Primary human fibroblasts derived from IPF patients (LL29 cells) [^1Xiaoqiu Liu, et. al., “Fibrotic Lung Fibroblasts Show Blunted Inhibition by cAMP Due to Deficient cAMP Response Element-Binding Protein Phosphorylation”, Journal of Pharmacology and Experimental Therapeutics (2005), 315(2), 678-687; ^2Watts, K. L., et. al., “RhoA signaling modulates cyclin D1 expression in human lung fibroblasts; implications for idiopathic pulmonary fibrosis”, Respiratory Research (2006), 7(1), 88] were obtained from American Type Culture Collection (ATCC) and expanded in F12 medium supplemented with 15% Fetal Bovine Serum and Penicillin/Streptomycin.
Each compound was dissolved in DMSO as a 10 mM stock and used to prepare compound source plates. Serial dilution (1:2, 11-point dose-response curves from 10 μM to 1.87 nM) and compound transfer was performed using the ECHO 550 (Labcyte, Sunnyvale, Calif.) into 384-well clear bottom assay plates (Greiner Bio-One) with appropriate DMSO backfill for a final DMSO concentration of 0.1%. LL29 cells are plated at 1,500 cells/well in 80 μL/well F12 medium supplemented with 1% Fetal Bovine Serum. One hour after addition of the cells, TGF-β1 (Peprotech; 20 ng/mL) was added to the plates to induce fibrosis (ref. 1 and 2 above). Wells treated with TGF-β1 and containing DMSO were used as controls. Cells were incubated at 37° C. and 5% CO2 for 4 days. Following incubation for 4 days, SYTOX green nucleic acid stain (Life Technologies [Thermo Fisher Scientific]) was added to the wells at a final concentration of 1 μM and incubated at room temperature for 30 min. Cells were then fixed using 4% formaldehyde (Electron Microscopy Sciences), washed 3 times with PBS followed by blocking and permeabilization using 3% Bovine Serum Albumin (BSA; Sigma) and 0.3% Triton X-100 (Sigma) in PBS. Cells were then stained with antibody specific to α-smooth muscle actin (αSMA; Abcam) (ref. 1 and 2 above) in 3% Bovine Serum Albumin (BSA; Sigma) and 0.3% Triton X-100 (Sigma) in PBS, and incubated overnight at 4° C. Cells were then washed 3 times with PBS, followed by incubation with Alexa Flor-647 conjugated secondary antibody (Life Technologies [Thermo Fisher Scientific]) and DAPI at room temperature for 1 hour. Cells were then washed 3 times with PBS and plates were sealed for imaging. αSMA staining was imaged by excitation at 630 nm and emission at 665 nm and quantified using the Compartmental Analysis program on the CellInsight CX5 (Thermo Scientific). Dead or apoptotic cells were excluded from analysis based on positive SYTOX green staining. % of total cells positive for αSMA were counted in each well and normalized to the average of 11 wells treated with TGF-β1 on the same plate using Dotmatics' Studies Software. The normalized averages (fold change over untreated) of 3 replicate wells for each compound concentration were used to create dose-responses curves and EC50 values were calculated using non-linear regression curve fit in the Dotmatics' Studies Software. For EC50 of >10 μM, the percent inhibition at 10 μM is provided.

IL-6 (THP-1 cells) = experiment: IL-6 inhibition in LPS-stimulated THP-1 human monocyte cells (HTRF); settings: LPS 500 ng/mL, 22 hours, IL6 HTRF
Procedure: Human monocyte cell line (THP-1 cells; Catalog # TIB-202, ATCC, Manassas, Va.) were cultured in Roswell Park Memorial Institute (RPMI) 1640 Medium (Catalog #21870-100, Buffalo, N.Y.) with 1% L-glutamine, 1% HEPES, 1% Sodium Pyruvate, 2% Sodium Bicarbonate supplemented with 100 units/mL penicillin, 50 μg/mL streptomycin, 2-mercaptoethanol (0.05 mM) [basal medium] and 10% fetal bovine serum (Catalog #16140089, Life Technologies, Carlsbad, Calif.) at 37° C. and 5% CO2.
THP-1 cells were cultured in basal media with 1% FBS for 24 hours before the start of the assay. Each compound was dissolved in DMSO as a 10 mM stock and used to prepare compound source plates. Serial dilution (1:3, 10-point dose-response curves starting from 10 μM) and compound transfer was performed using the ECHO 550 (Labcyte, Sunnyvale, Calif.) into 384-well white low volume assay plates (Greiner Bio-One) with appropriate DMSO backfill for a final DMSO concentration of 0.1%. THP-1 cells were plated at 5000 cells/well in the 384-well plates and incubated at 37° C. for 2 h. 500 ng/mL of LPS was added after 2 hours and cells were incubated for another 22 hours at 37° C. Plates were spun in a centrifuge for 1 minute at […] and a mixture of anti-IL6 XL665, and anti-IL6 Cryptate diluted in reconstitution buffer (Cisbio Inc.) was added to each well. Following incubation for 3 hrs at room temperature, Homogeneous Time-Resolved Fluorescence (HTRF) was measured using the Envision (Perkin Elmer) at 665 nm and […]. The ratio of fluorescence at 665 nm to 620 nm was used as a readout for IL6 quantification. All samples were processed in duplicate. Readings were normalized to DMSO treated cells and normalized activities were utilized for EC50 calculations using the dose-response log (inhibitor) vs. response-variable slope (four parameters) nonlinear regression feature available in GraphPad Prism 5.0 (or Dotmatics). For EC50 of >10 μM, the percent inhibition at 10 μM is provided.

Q: For `CN1CCN(c2cccc3[nH]c(-c4n[nH]c5ccc(-c6cncc(CN7CCCCC7)c6)nc45)cc23)CC1` [Compound 239, 3-(4-(4-Methylpiperazin-1l-yl)-1H-indol-2-yl)-5-(5-(piperidin-1-ylmethyl)pyridin-3-yl)-1H-pyrazolo[4,3-b]pyridine], which inhibition at 10 µM [1] is on record?
A: 5%

Q: What about the EC50 [1] of the same compound?
A: > 10 µM

Q: And the EC50 (SW480 colon cancer cells)?
A: 9.36 µM

Q: And the EC50 [2]?
A: 4.98 µM

Q: What about the EC50 (IL-6 (THP-1 cells)) of the same compound?
A: 1.19 µM

Q: What does the source list for `CN1CCN(c2cccc3[nH]c(-c4n[nH]c5ccc(-c6cncc(NC(=O)CC(C)(C)C)c6)nc45)cc23)CC1` [Compound 240, 3,3-Dimethyl-N-(5-(3-(4-(4-methylpiperazin-1-yl)-1H-indol-2-yl)-1H-pyrazolo[4,3-b]pyridin-5-yl)pyridin-3-yl)butanamide]?
A: EC50 [1]: 2.98 µM; EC50 (SW480 colon cancer cells): 1.84 µM; EC50 [2]: 1.75 µM; EC50 (IL-6 (THP-1 cells)): 0.244 µM

Q: `Cc1ccncc1-c1ccc2[nH]nc(-c3cc4ccccc4[nH]3)c2n1` [Compound 257, 3-(1H-Indol-2-yl)-5-(4-methylpyridin-3-yl)-1H-pyrazolo[4,3-b]pyridine] was tested. Which EC50 [1] did it give?
A: 3.69 µM

Q: What about the EC50 (SW480 colon cancer cells) of the same compound?
A: 8.06 µM

Q: And the EC50 [2]?
A: 4.64 µM

Q: And the EC50 (IL-6 (THP-1 cells))?
A: 0.017 µM

Q: For `O=C(Nc1cncc(-c2ccc3[nH]nc(-c4cc5c(-c6cccs6)cccc5[nH]4)c3n2)c1)c1ccccc1` [Compound 347, N-(5-(3-(4-(Thiophen-2-yl)-1H-indol-2-yl)-1H-pyrazolo[4,3-b]pyridin-5-yl)pyridin-3-yl)benzamide], which inhibition at 10 µM [1] is on record?
A: 35.8%

Q: And the EC50 [1]?
A: > 10 µM

Q: What about the EC50 (SW480 colon cancer cells) of the same compound?
A: 6.08 µM

Q: What about the EC50 [2] of the same compound?
A: 0.446 µM

Q: What about the EC50 (IL-6 (THP-1 cells)) of the same compound?
A: 1.07 µM

Q: What does the source list for `CN(C)Cc1cncc(-c2ccc3[nH]nc(-c4cc5c(-c6cccs6)cccc5[nH]4)c3n2)c1` [Compound 349, N,N-Dimethyl-1-(5-(3-(4-(thiophen-2-yl)-1H-indol-2-yl)-1H-pyrazolo[4,3-b]pyridin-5-yl)pyridin-3-yl)methanamine]?
A: EC50 [1]: 8.28 µM; EC50 (SW480 colon cancer cells): 2.84 µM; EC50 [2]: 1.27 µM; EC50 (IL-6 (THP-1 cells)): 0.137 µM

Q: Which EC50 [1] does the source give for `c1csc(-c2cccc3[nH]c(-c4n[nH]c5ccc(-c6ccncc6)nc45)cc23)c1` [Compound 354, 5-(Pyridin-4-yl)-3-(4-(thiophen-2-yl)-1H-indol-2-yl)-1H-pyrazolo[4,3-b] pyridine] here?
A: 3.6 µM

Q: What about the EC50 (SW480 colon cancer cells) of the same compound?
A: 4.12 µM

Q: What about the EC50 [2] of the same compound?
A: 1.46 µM

Q: And the EC50 (IL-6 (THP-1 cells))?
A: 1.42 µM

Q: What does the source list for `CN(C)CCNc1cc(F)cc(-c2cccc3[nH]c(-c4n[nH]c5ccc(-c6cncc(NC(=O)Cc7ccccc7)c6)nc45)cc23)c1` [Compound 458, N-(5-(3-(4-(3-((2-(Dimethylamino)ethyl)amino)-5-fluorophenyl)-1H-indol-2-yl)-1H-pyrazolo[4,3-b]pyridin-5-yl)pyridin-3-yl)-2-phenylacetamide]?
A: EC50 [1]: 1.03 µM; EC50 (SW480 colon cancer cells): 0.97 µM; EC50 [2]: 1.86 µM; EC50 (IL-6 (THP-1 cells)): 1.46 µM

Q: How did the EC50 [1] turn out when `CC(C)(C)CC(=O)Nc1cncc(-c2ccc3[nH]nc(-c4cc5c(-c6cc(F)cc(CNS(C)(=O)=O)c6)cccc5[nH]4)c3n2)c1` [Compound 492, N-(5-(3-(4-(3-Fluoro-5-(methylsulfonamidomethyl)phenyl)-1H-indol-2-yl)-1H-pyrazolo[4,3-b]pyridin-5-yl)pyridin-3-yl)-3,3-dimethylbutanamide] was run?
A: 0.292 µM

Q: What about the EC50 (SW480 colon cancer cells) of the same compound?
A: 1.06 µM

Q: And the EC50 [2]?
A: 0.345 µM

Q: What about the EC50 (IL-6 (THP-1 cells)) of the same compound?
A: 0.261 µM

Q: For `CS(=O)(=O)NCc1cc(F)cc(-c2cccc3[nH]c(-c4n[nH]c5ccc(-c6cncc(NC(=O)C7CCCC7)c6)nc45)cc23)c1` [Compound 498, N-(5-(3-(4-(3-Fluoro-5-(methylsulfonamidomethyl)phenyl)-1H-indol-2-yl)-1H-pyrazolo[4,3-b]pyridin-5-yl)pyridin-3-yl)cyclopentanecarboxamide], which EC50 [1] is on record?
A: 0.306 µM

Q: What about the EC50 (SW480 colon cancer cells) of the same compound?
A: 0.827 µM

Q: And the EC50 [2]?
A: 0.403 µM

Q: What about the EC50 (IL-6 (THP-1 cells)) of the same compound?
A: 0.106 µM

Q: Which EC50 [1] does the source give for `CS(=O)(=O)NCc1cc(F)cc(-c2cccc3[nH]c(-c4n[nH]c5ccc(-c6cncc(CN7CCC(F)(F)C7)c6)nc45)cc23)c1` [Compound 502, N-(3-(2-(5-(5-((3,3-Difluoropyrrolidin-1-yl)methyl)pyridin-3-yl)-1H-pyrazolo[4,3-b]pyridin-3-yl)-1H-indol-4-yl)-5-fluorobenzyl)methanesulfonamide] here?
A: 0.196 µM

Q: What about the EC50 (SW480 colon cancer cells) of the same compound?
A: 0.693 µM

Q: And the EC50 [2]?
A: 0.148 µM

Q: What about the EC50 (IL-6 (THP-1 cells)) of the same compound?
A: 0.298 µM

Reference: US10226453B2, “3-(1H-indol-2-yl)-1H-pyrazolo[4,3-B]pyridines and therapeutic uses thereof” (Samumed, LLC, priority 2015, dated 2019)
